Data from ChEMBL document CHEMBL1671627, “Increasing trends in antimicrobial resistance among clinically important anaerobes and Bacteroides fragilis isolates causing nosocomial infections: emerging resistance to carbapenems” (2008).

What was measured:
Bacteroides fragilis [1] = assay: Antibacterial activity against Bacteroides fragilis assessed as susceptible isolates by CLSI agar dilution method; assay type: functional
Bacteroides fragilis [2] = assay: Antibacterial activity against Bacteroides fragilis assessed as resistant isolates by CLSI agar dilution method; assay type: functional
[3] = system: Bacteroides thetaiotaomicron; assay: Antibacterial activity against beta-lactamase producing Bacteroides thetaiotaomicron assessed as susceptible isolates by CLSI agar dilution method; assay type: functional
[4] = system: Bacteroides thetaiotaomicron; assay: Antibacterial activity against beta-lactamase producing Bacteroides thetaiotaomicron assessed as resistant isolates by CLSI agar dilution method; assay type: functional
Phocaeicola vulgatus [5] = assay: Antibacterial activity against beta-lactamase producing Bacteroides vulgatus by CLSI agar dilution method; assay type: functional
Phocaeicola vulgatus [6] = assay: Antibacterial activity against beta-lactamase producing Bacteroides vulgatus assessed as susceptible isolates by CLSI agar dilution method; assay type: functional
Phocaeicola vulgatus [7] = assay: Antibacterial activity against beta-lactamase producing Bacteroides vulgatus assessed as resistant isolates by CLSI agar dilution method; assay type: functional
Bacteroides uniformis [8] = assay: Antibacterial activity against beta-lactamase producing Bacteroides uniformis by CLSI agar dilution method; assay type: functional
Bacteroides uniformis [9] = assay: Antibacterial activity against beta-lactamase producing Bacteroides uniformis assessed as susceptible isolates by CLSI agar dilution method; assay type: functional
Bacteroides uniformis [10] = assay: Antibacterial activity against beta-lactamase producing Bacteroides uniformis assessed as resistant isolates by CLSI agar dilution method; assay type: functional
Bacteroides caccae [11] = assay: Antibacterial activity against beta-lactamase producing Bacteroides caccae by CLSI agar dilution method; assay type: functional
Bacteroides caccae [12] = assay: Antibacterial activity against beta-lactamase producing Bacteroides caccae assessed as susceptible isolates by CLSI agar dilution method; assay type: functional
Bacteroides caccae [13] = assay: Antibacterial activity against beta-lactamase producing Bacteroides caccae assessed as resistant isolates by CLSI agar dilution method; assay type: functional
Fusobacterium varium [14] = assay: Antibacterial activity against Fusobacterium varium by CLSI agar dilution method; assay type: functional
Fusobacterium nucleatum [15] = assay: Antibacterial activity against Fusobacterium nucleatum by CLSI agar dilution method; assay type: functional
Fusobacterium mortiferum [16] = assay: Antibacterial activity against Fusobacterium mortiferum by CLSI agar dilution method; assay type: functional
[17] = system: Fusobacterium necrophorum; assay: Antibacterial activity against Fusobacterium necrophorum by CLSI agar dilution method; assay type: functional
Fusobacterium varium [18] = assay: Antibacterial activity against Fusobacterium varium assessed as susceptible isolates by CLSI agar dilution method; assay type: functional
Fusobacterium nucleatum [19] = assay: Antibacterial activity against Fusobacterium nucleatum assessed as susceptible isolates by CLSI agar dilution method; assay type: functional
Fusobacterium mortiferum [20] = assay: Antibacterial activity against Fusobacterium mortiferum assessed as susceptible isolates by CLSI agar dilution method; assay type: functional
[21] = system: Fusobacterium necrophorum; assay: Antibacterial activity against Fusobacterium necrophorum assessed as susceptible isolates by CLSI agar dilution method; assay type: functional
Fusobacterium varium [22] = assay: Antibacterial activity against Fusobacterium varium assessed as resistant isolates by CLSI agar dilution method; assay type: functional
Fusobacterium nucleatum [23] = assay: Antibacterial activity against Fusobacterium nucleatum assessed as resistant isolates by CLSI agar dilution method; assay type: functional
Fusobacterium mortiferum [24] = assay: Antibacterial activity against Fusobacterium mortiferum assessed as resistant isolates by CLSI agar dilution method; assay type: functional
[25] = system: Fusobacterium necrophorum; assay: Antibacterial activity against Fusobacterium necrophorum assessed as resistant isolates by CLSI agar dilution method; assay type: functional
Prevotella buccae [26] = assay: Antibacterial activity against Prevotella buccae by CLSI agar dilution method; assay type: functional; settings: Segatella buccae
Prevotella bivia [27] = assay: Antibacterial activity against Prevotella bivia by CLSI agar dilution method; assay type: functional
Prevotella intermedia [28] = assay: Antibacterial activity against Prevotella intermedia by CLSI agar dilution method; assay type: functional
[29] = system: Prevotella melaninogenica; assay: Antibacterial activity against Prevotella melaninogenica by CLSI agar dilution method; assay type: functional
Prevotella buccae [30] = assay: Antibacterial activity against Prevotella buccae assessed as susceptible isolates by CLSI agar dilution method; assay type: functional, Segatella buccae
Prevotella bivia [31] = assay: Antibacterial activity against Prevotella bivia assessed as susceptible isolates by CLSI agar dilution method; assay type: functional
Prevotella intermedia [32] = assay: Antibacterial activity against Prevotella intermedia assessed as susceptible isolates by CLSI agar dilution method; assay type: functional
[33] = system: Prevotella melaninogenica; assay: Antibacterial activity against Prevotella melaninogenica assessed as susceptible isolates by CLSI agar dilution method; assay type: functional

O=C(N[C@H](CO)[C@H](O)c1ccc([N+](=O)[O-])cc1)C(Cl)Cl [CHLORAMPHENICOL]
3%: Activity (Bacteroides fragilis [2])
0%: Activity [4]
4%: Activity (Phocaeicola vulgatus [7]) | Activity (Bacteroides uniformis [10]) | Activity (Bacteroides caccae [13]) | Activity (Fusobacterium varium [22]) | Activity (Fusobacterium nucleatum [23]) | Activity (Fusobacterium mortiferum [24]) | Activity [25]
2 mg/L: MIC50 (Fusobacterium varium [14]) | MIC90 (Fusobacterium varium [14]) | MIC50 (Fusobacterium nucleatum [15]) | MIC90 (Fusobacterium nucleatum [15]) | MIC50 (Fusobacterium mortiferum [16]) | MIC90 (Fusobacterium mortiferum [16]) | MIC50 [17] | MIC90 [17]
4 mg/L: MIC50 (Phocaeicola vulgatus [5]) | MIC50 (Bacteroides uniformis [8]) | MIC50 (Bacteroides caccae [11]) | MIC50 (Prevotella buccae [26]) | MIC50 (Prevotella bivia [27]) | MIC50 (Prevotella intermedia [28]) | MIC50 [29]
97%: Activity (Bacteroides fragilis [1]) | Activity [3]
96%: Activity (Phocaeicola vulgatus [6]) | Activity (Bacteroides uniformis [9]) | Activity (Bacteroides caccae [12]) | Activity (Fusobacterium varium [18]) | Activity (Fusobacterium nucleatum [19]) | Activity (Fusobacterium mortiferum [20]) | Activity [21]
100%: Activity (Prevotella buccae [30]) | Activity (Prevotella bivia [31]) | Activity (Prevotella intermedia [32]) | Activity [33]
8 mg/L: MIC90 (Phocaeicola vulgatus [5]) | MIC90 (Bacteroides uniformis [8]) | MIC90 (Bacteroides caccae [11]) | MIC90 (Prevotella buccae [26]) | MIC90 (Prevotella bivia [27]) | MIC90 (Prevotella intermedia [28]) | MIC90 [29]
